Measurements from patent EP4681707A1, “METHOD FOR TREATING DISEASES BY USING REPARIXIN ALONE OR IN COMBINATION WITH ANTI-PD-1 ANTIBODY” (Shandong Cancer Hospital Affiliated to Shandong First …, priority 2023, dated 2024).

Experiments:
NAFLD = assay: Mouse NAFLD model induced by 60% high-fat feed, oil red staining and immunohistochemistry of liver (Example 6); format: in vivo; conditions: NAFLD mice, 30 mg/kg intraperitoneally once every 2 days
Protocol: Experimental methods: The "Western diet" (WD) was simulated with 60% high-fat feed, and the NAFLD model could be established within 12 weeks. After the establishment of the animal model, the mice were intraperitoneally injected once every 2 days at a dose of 30 mg/kg. Liver tissues of the mice were collected on days 12, 15, and 21 of administration, and oil red staining was performed on the liver tissues of each group.
(§1) Experimental grouping: The experimental groups were injected with reparixin, and the control group was injected with PBS.
(A) After NAFLD was established, raparixin was intraperitoneally injected once every two days; macroscopic views of representative liver tissues and oil red staining of liver sections in each group are shown, and the scale represents 50 µm. (B) Oil red staining positive area rate of NAFLD and 12-day treatment groups, n = 4. (C) Oil red staining positive area rate of NAFLD and 15-day treatment groups, n = 4. Statistical test: mean + SD, Student's t-test, * p < 0.05.
A: representative gross views of livers of mice in the NAFLD treatment group and untreated group, and oil red O staining and immunohistochemical staining on liver sections of the two groups of mice, with the scale bar being 100 µm; B-C: comparison of mean immunohistochemical staining densities of IL6 (B) and CXCR2 (C) in livers of NAFLD mice treated with reparixin for 21 days (mean ± SD, Student's t test).

[1] = 5 mg/kg subcutaneously once daily for 3 consecutive weeks; cited from earlier work
Luciferase-MC38 cells = assay: Mouse CRC liver metastasis model by intra-splenic injection, reparixin alone (Example 4); format: in vivo, C57BL/6 mice; conditions: for liver weight / liver/body weight ratio: reparixin 30 mg/kg intraperitoneally every other day, day 12
Protocol: Experimental methods: Luciferase-MC38 cells were intrasplenically injected into C57BL/6 mice complicated by NAFLD or uncomplicated by NAFLD. Subsequently, reparixin (MCE, 30 mg/kg) or PBS was intraperitoneally injected every other day. On day 6 after tumor inoculation, the extent of liver metastasis was observed by imaging using an In vivo Imaging System (IVIS, PerkinElmer, Hopkinton, MA, USA). On day 12 after tumor inoculation, the mice were sacrificed under isoflurane anesthesia and soaked in alcohol for 30 min. Livers from each group of mice were prepared into single-cell suspensions, which were subjected to blocking, staining, incubation, and subsequent detection on the machine.
as §1
(A) Experimental treatment protocol: After Luciferase-MC38 cells were inoculated, PBS or reparixin was injected on days 3, 5, 7, 9, and 11, respectively, and the mice were sacrificed on day 12. (B) In vivo bioluminescence imaging of each group (CRLM group, CRLM + reparixin group, NAFLD + CRLM group, NAFLD + CRLM + reparixin group) on day 6 after tumor inoculation. (C) Representative gross anatomical views of livers of each group of mice (samples collected on day 12 after treatment); yellow arrows represent tumors. (D) Liver weight of each group of mice; n = 5-6.

gastric cancer = conditions: treatment of gastric cancer; cited from earlier work
IL-1β = conditions: after MCAo in mice; cited from earlier work

CC(C)Cc1ccc([C@@H](C)C(=O)NS(C)(=O)=O)cc1 [reparixin]
inflammation (NAFLD; IL6 and CXCR2 staining after 21 days): reduce inflammation
hepatocellular steatosis (NAFLD; days 12, 15, 21): significantly ameliorated
lipid vacuoles (NAFLD; days 12, 15, 21): reduced
blood flow [1]: increased
systolic blood pressure [1]: effectively reduced
liver weight (Luciferase-MC38 cells; CRLM animal model): decreased significantly
liver/body weight ratio (Luciferase-MC38 cells; CRLM animal model): decreased significantly
liver weight (Luciferase-MC38 cells; NAFLD + CRLM animal model): decreased significantly
liver/body weight ratio (Luciferase-MC38 cells; NAFLD + CRLM animal model): decreased significantly
liver metastasis burden (Luciferase-MC38 cells; especially in mice complicated by NAFLD, 30 mg/kg intraperitoneally): can reduce the liver metastasis burden
overall survival (OS) rate (gastric cancer): prolongs
programmed death ligand 1 macrophages (gastric cancer): reduction
level of IL-1β in the brain (IL-1β): reduce
